Test results reported in patent publication US20070299084A1, “Indole Derivatives Useful for Treating Resistance to Antitumor Agents” (NIKEM RESE S.R.L., priority 2004, published 2007).

Assays:
[1] = system: SH-SY5Y cells (human neuroblastoma); test: Antiproliferative activity, 48 h treatment, ATPlite luminescence assay, SH-SY5Y; format: cell-based; settings: Homo sapiens, SH-SY5Y, 48 h, read-out: Antiproliferative activity (IC50 ± S.D., μM) SHSY-5Y
Description: SH-SY5Y and SK-N-BE(2): maintained in HAM-F12 medium+10% FCS.
24 hours after seeding, an aliquot (10 μl) of the drug at the various concentrations is added (for each concentration there are 3 replicates). After 48 hours of treatment the antiproliferative effect is evaluated with a luminescence assay (Perkin Elmer Life Sciences ATPlite):
50 μl of a lysis solution are added to each well followed by an equal volume of a solution containing luciferase and D-luciferin. The ATP present in all the metabolically active cells brings about the transformation reaction of D-luciferin, catalysed by luciferase, to produce a luminescent signal as described in the following scheme: ATP+D-luciferin+O2→Oxyluciferin+AMP+PPi+CO2+Light
The luminescence produced (expressed in counts per second, CPS) is measured by means of a microplate scintillation analyzer (Perkin Elmer Life Sciences Top Count).
Percentage inhibition of luminescence in the treated cells compared to the control is calculated; concentration-response curves are then analysed using Grafit v.5.0.

[2] = system: HCT116 cells (human colon carcinoma); test: Antiproliferative activity, 72 h treatment, SRB assay, HCT116; format: cell-based
Description: HCT116 maintained in RPMI 1640 medium+10% FCS.
The cells (HT29 and HT29/Mit:. 40,000 cells/ml, LoVo, LoVo/Dx and HCT116: 50,000 cells/ml) are seeded in 100 μl of the respective culture media in 96-well plates. 24 hours after seeding, an aliquot (10 μl) of drug at the various concentrations is added. In the samples in which the effect of the combination of two compounds is to be tested the inhibitor is added immediately before the cytotoxic. For each dose or combination of doses/drugs the effect of the treatment is determined in 4-8 replicates.
After 72 hours of treatment the antiproliferative effect is evaluated using the sulforhodamine B (SRB) assay: the cells are fixed by adding 25 μl of 50% TCA to each well and left for 1 hour at 4° C. After washing them with water and allowing them to dry, 100 μl of 0.4% SRB in 1% acetic acid are added and left for 30 minutes at room temperature. After 4 washes in 1% acetic acid, they are left to dry, then the dye fixed by the proteins is dissolved under basic conditions with 100 μl 10 mM cold Tris and the solution is read using a spectrophotometer at 550 nm.
Percentage cell growth is calculated as the optical density of treated samples compared to the optical density of controls (untreated cells).
The Combination Index (C.I.) was determined according to Kern's method, 1988 (who continued from Drewinko B, 1976) (Kern D. H., Cancer Res. 48, 117-121, 1988; Drewinko B., Cancer Biochem. Biophys. 1, 187-195, 1976) by means of the following formula: […], where SFa and SFb are the fractions of cells surviving to treatment with compound a and b, respectively; SFab is the fraction surviving to the combination of compounds a and b.

CCOc1cc(C(=O)NC2CC(C)(C)NC(C)(C)C2)ccc1-c1cc2cc(Cl)c(Cl)cc2[nH]1 [Example 2]
IC50 [1]: 6.8 ± 0.5 µM | Interaction with cisplatin ([2]; HCT116 line, subtoxic and subactive concentrations): significant synergistic effect | IC50 ([2]; Homo sapiens, HCT-116, 72 h, read-out: Antiproliferative activity (IC50 ± S.D., μM) HCT116): 2.4 ± 0.9 µM
